Values quoted from earlier work as cited in PMC6394493 (Cancer Chemotherapy and Pharmacology, 2018).

Conditions: bid; Western oncology patients; cited from earlier work

Cn1c(=O)n(-c2ccc(C(C)(C)C#N)cc2)c2c3cc(-c4cnc5ccccc5c4)ccc3ncc21 [BEZ235]
MTD: 300 mg
